From patent US9493466B2, “Treatment of cancer with TOR kinase inhibitors” (Signal Pharmaceuticals, LLC, priority 2011, dated 2016)

Tests used:
Assay in all cases: Apoptosis assay for NHL lines (Caspase 3/7-Glo)
Assay type in all cases: cell-based
[1] = system: DB; details: NHL DLBCL, 24 hours, n = 1
Protocol: (§1) Apoptosis Assay for NHL Lines. Prior to testing, cells were grown and expanded in culture flasks to provide sufficient amounts of starting material. Cells were then diluted to their desired densities and added directly to compound-spotted 384-well plates. Cells were allowed to grow for 24 hours in 5% CO2 at 37° C. The apoptotic response was assessed by quantifying the activities of caspase 3 and caspase 7 (Caspase 3/7-Glo) in treated cells and control cells at the 24-hour time point. All data was normalized and represented as a value relative to the DMSO-treated cells. Results were then expressed as CalX, which is the minimum compound concentration required to double the levels of caspase 3/7 relative to those of the DMSO-treated cells during their treatment period.

[2] = system: DOHH-2; details: DOHH-2, NHL FL, 24 hours, n = 1
Protocol: as §1

[3] = system: Farage; details: NHL DLBCL, 24 hours, n = 1
Protocol: as §1

[4] = system: Granta-519; details: Granta-519, NHL MCL, 24 hours, n = 1
Protocol: as §1

[5] = system: HL-60; details: HL-60, Leukemia M-AML, 24 hours, n = 1
Protocol: as §1

[6] = system: HT; details: NHL DLBCL, 24 hours, n = 1
Protocol: as §1

[7] = system: JEKO-1; details: JEKO-1, NHL MCL, 24 hours, n = 1
Protocol: as §1

[8] = system: JVM-13; details: JVM-13, NHL MCL, 24 hours, n = 1
Protocol: as §1

[9] = system: JVM-2; details: JVM-2, NHL MCL, 24 hours, n = 1
Protocol: as §1

[10] = system: KARPAS-299; details: KARPAS-299, ALCL T-cell, 24 hours, n = 1
Protocol: as §1

[11] = system: KARPAS-422; details: KARPAS-422, NHL DLBCL, 24 hours, n = 1
Protocol: as §1

[12] = system: KASUMI-1; details: KASUMI-1, Leukemia M-AML, 24 hours, n = 1
Protocol: as §1

[13] = system: KG-1; details: KG-1, Leukemia M-AML, 24 hours, n = 1
Protocol: as §1

[14] = system: MOLM-13; details: MOLM-13, Leukemia M-AML, 24 hours, n = 1
Protocol: as §1

[15] = system: NU-DHL-1; details: NU-DHL-1, NHL DLBCL, 24 hours, n = 1
Protocol: as §1

[16] = system: OCI-LY-3; details: OCI-LY-3, NHL DLBCL, 24 hours, n = 1
Protocol: as §1

[17] = system: OCI-LY-7; details: OCI-LY-7, NHL DLBCL, 24 hours, n = 1
Protocol: as §1

[18] = system: Pfeiffer; details: NHL DLBCL, 24 hours, n = 1
Protocol: as §1

[19] = system: RC-K8; details: RC-K8, NHL DLBCL, 24 hours, n = 1
Protocol: as §1

[20] = system: REC-1; details: REC-1, NHL MCL, 24 hours, n = 1
Protocol: as §1

[21] = system: SC-1; details: SC-1, NHL FL, 24 hours, n = 1
Protocol: as §1

[22] = system: SU-DHL-10; details: SU-DHL-10, NHL DLBCL, 24 hours, n = 1
Protocol: as §1

[23] = system: SU-DHL-16; details: SU-DHL-16, NHL DLBCL, 24 hours, n = 1
Protocol: as §1

[24] = system: SU-DHL-1; details: SU-DHL-1, ALCL T-cell, 24 hours, n = 1
Protocol: as §1

[25] = system: SU-DHL-4; details: SU-DHL-4, NHL DLBCL, 24 hours, n = 1
Protocol: as §1

[26] = system: SU-DHL-5; details: SU-DHL-5, NHL DLBCL, 24 hours, n = 1
Protocol: as §1

[27] = system: SU-DHL-6; details: SU-DHL-6, NHL DLBCL, 24 hours, n = 1
Protocol: as §1

[28] = system: SU-DHL-8; details: SU-DHL-8, NHL DLBCL, 24 hours, n = 1
Protocol: as §1

[29] = system: THP-1; details: THP-1, Leukemia M-AML, 24 hours, n = 1
Protocol: as §1

[30] = system: U-2932; details: U-2932, NHL DLBCL, 24 hours, n = 1
Protocol: as §1

[31] = system: U-2940; details: U-2940, NHL DLBCL, 24 hours, n = 1
Protocol: as §1

[32] = system: WSU-DLCL2; details: WSU-DLCL2, NHL DLBCL, 24 hours, n = 1
Protocol: as §1

[33] = system: WSU-FSCCL; details: NHL FL, 24 hours, n = 1
Protocol: as §1

Structure (SMILES): CO[C@H]1CC[C@H](N2C(=O)CNc3ncc(-c4ccc(C(C)(C)O)nc4)nc32)CC1 [Compound 1, 7-(6-(2-hydroxypropan-2-yl)pyridin-3-yl)-1-((1r,4r)-4-methoxycyclohexyl)-3,4-dihydropyrazino-[2,3-b]pyrazin-2(1H)-one]
- Apoptotic [1]: N/Y
- CalX (minimum concentration to double caspase 3/7) [1]: 5.44
- CalX (minimum concentration to double caspase 3/7) [2]: 0.14
- CalX (minimum concentration to double caspase 3/7) [3]: 0.47
- CalX (minimum concentration to double caspase 3/7) [4]: 10
- CalX (minimum concentration to double caspase 3/7) [5]: 10
- Apoptotic [6]: N/Y
- CalX (minimum concentration to double caspase 3/7) [6]: 5.62
- CalX (minimum concentration to double caspase 3/7) [7]: 0.56
- Apoptotic [8]: N/Y
- CalX (minimum concentration to double caspase 3/7) [8]: 4.27
- Apoptotic [9]: N/Y
- CalX (minimum concentration to double caspase 3/7) [9]: 3.2
- Apoptotic [10]: N/Y
- CalX (minimum concentration to double caspase 3/7) [10]: 9.61
- Apoptotic [11]: N/Y
- CalX (minimum concentration to double caspase 3/7) [11]: 5.16
- Apoptotic [12]: N/Y
- CalX (minimum concentration to double caspase 3/7) [12]: 6.52
- CalX (minimum concentration to double caspase 3/7) [13]: 10
- Apoptotic [14]: N/Y
- CalX (minimum concentration to double caspase 3/7) [14]: 7.24
- CalX (minimum concentration to double caspase 3/7) [15]: 0.41
- CalX (minimum concentration to double caspase 3/7) [16]: 0.67
- CalX (minimum concentration to double caspase 3/7) [17]: 0.07
- CalX (minimum concentration to double caspase 3/7) [18]: 10
- Apoptotic [19]: N/Y
- CalX (minimum concentration to double caspase 3/7) [19]: 6.51
- CalX (minimum concentration to double caspase 3/7) [20]: 0.79
- CalX (minimum concentration to double caspase 3/7) [21]: 10
- CalX (minimum concentration to double caspase 3/7) [22]: 0.54
- CalX (minimum concentration to double caspase 3/7) [23]: 0.11
- CalX (minimum concentration to double caspase 3/7) [24]: 10
- Apoptotic [25]: N/Y
- CalX (minimum concentration to double caspase 3/7) [25]: 5.15
- CalX (minimum concentration to double caspase 3/7) [26]: 0.59
- CalX (minimum concentration to double caspase 3/7) [27]: 10
- CalX (minimum concentration to double caspase 3/7) [28]: 0.07
- Apoptotic [29]: N/Y
- CalX (minimum concentration to double caspase 3/7) [29]: 7.57
- CalX (minimum concentration to double caspase 3/7) [30]: 2.04
- CalX (minimum concentration to double caspase 3/7) [31]: 0.43
- CalX (minimum concentration to double caspase 3/7) [32]: 0.19
- CalX (minimum concentration to double caspase 3/7) [33]: 0.16
